Literature values as cited in US10359349B2, “Use of focused light scattering techniques in biological applications” (AIDIA INVESTMENT GROUP, INC., priority 2008, dated 2019).

Tested on: platelets
Settings: platelet inhibition in arterial thrombophilic diseases; share of drug-treated patients whose platelets are not inhibited

Row | Compound | treated patients who do not respond to treatment
1 | CC(=O)Oc1ccccc1C(=O)O [ASA, Aspirin] | Approximately 25%
2 | COC(=O)[C@H](c1ccccc1Cl)N1CCc2sccc2C1 [Plavix, clopidogrel bisulfate] | ~29%
